Entries after “also recorded” stand apart in the source; their conditions may differ.
Columns and labels:
Sprague-Dawley rats [1] = experiment: Bronchoalveolar lavage fluid (BALF) analysis after acute inhalation; type: in vivo, rat
Procedure: (§1) The inhalation aerosols of the DGH solutions were generated using an atomizer with a clean air flow of 250 L/min. […] In the acute toxicity test, all the rats in each group were sacrificed immediately after exposure. Temperature, humidity, air flow, and air pressure were monitored during the exposure using a Model VT3-X15 environmental controller (Sibata, Saitama, Japan). The concentration of DGH was analyzed by sampling the chamber air using a SIP-32L (Sibata, Saitama, Japan) and measuring the weight of the membranes (T60A20, Φ55). The mass median aerodynamic diameter (MMAD) and geometric standard deviation (GSD) of DGH in the exposure chamber were measured using an Andersen cascade impactor (AN-200, Sibata, Saitama, Japan).
BALF was obtained from the right lung by lavage (twice) with 3 mL phosphate buffered saline (PBS, pH 7.4, magnesium, and calcium free). The BALF samples were centrifuged (1500 rpm, 4 °C, 10 min) and the cell-free supernatant of the first lavage was used for the determination of LDH, total protein, and inflammatory cytokine levels. LDH activity was measured using the EZ-LDH kit (DoGenBio, Seoul, Korea). Total protein content was quantified using a BCA protein assay kit (iNtRON Biotechnology, Seoul, Korea). To evaluate the inflammatory cytokine levels in BALF, tumor necrosis factor-alpha (TNF-α), interleukin-6 (IL-6), interleukin-1 beta (IL-1β), […], and transforming growth factor-beta 1 (TGF-β1) were determined using a Quantikine® enzyme-linked immunosorbent assay kit (R&D Systems, Minneapolis, MN, USA), according to the manufacturer’s instructions. Cells in all lavages were resuspended in PBS, and the total cell count in BALF was quantified using a Vi-Cell® XR analyzer (Beckman Coulter, Brea, CA, USA). Differential cell counts were performed on cytospin preparations (Shadon, Pittsburgh, PA, USA), and the cells were stained with Diff-Quick (Fisher Scientific, Swedesboro, NJ, USA). Polymorphonuclear leukocytes (PMNs) in the BALF were counted using light microscopy (Olympus, Tokyo, Japan).

Sprague-Dawley rats [2] = experiment: Acute inhalation study (4 h aerosol exposure); type: in vivo, rat
Procedure: Specific-pathogen-free (SPF) male and female Sprague-Dawley (six-week-old) rats were purchased from Orient Bio Inc. (Sungnam, Korea). The temperature and relative humidity of the animal maintenance room was set to 22 ± 3 °C and 30 to 70%, respectively, with a 12:12 h light/dark cycle. Diet (LabDiet 5053, Orient Bio Inc., Sungnam, Korea) and water were supplied ad libitum. Following an acclimatization period of one week, the rats were randomly divided into four groups (five males and five females per group) for the acute inhalation study. All animal experiments were approved by the Animal Care and Use Committee of the National Institute of Environmental Research, Republic of Korea (identification code: NIER-2019-01-01-011; date of approval: 15 May 2019). The left lung of the rats was used for histopathological analysis and the right lung was used for bronchoalveolar lavage fluid (BALF) analysis, including lung cell damage and pulmonary inflammation.
as §1
Hematology and serum biochemistry of ten rats in each group were analyzed, as described in previous studies. Briefly, blood samples of the animals were drawn from the ventral aorta using a syringe, under anesthesia. The blood samples were collected into CBC bottles containing ethylenediaminetetraacetic acid (EDTA) (K2 EDTA, BD vacutainer) and analyzed within 15 min, using an automatic hematology LC-662G, Kyoto, Japan. The following parameters were determined: white blood cell count, red blood cell count, hemoglobin, hematocrit, mean corpuscular volume, mean corpuscular hemoglobin, mean corpuscular hemoglobin concentration, red blood cell volume distribution width, platelets, mean platelet volume, […], and platelet distribution width. Blood samples were drawn from the ventral aorta using a syringe and collected in a serum vacutainer. The sera were collected by centrifugation at 2000 rpm for 10 min within 2 h after collection and stored at −80 °C in a freezer, prior to analysis. The following serum biochemistry parameters were determined using an automatic serum analyzer (Drichem4000, Fuji Photo Film, Tokyo, Japan): alkaline phosphatase, lactate dehydrogenase (LDH), glucose, total cholesterol, glutamic oxaloacetate transaminase, glutamic pyruvate transaminase, urea nitrogen in blood, calcium, inorganic phosphorus, gamma glutamyl transferase, albumin, total protein, creatinine, total bilirubin, sodium, potassium, and chlorine.

A549 cells [3] = experiment: Colony formation (clonogenic) assay; type: cell-based, Human; conditions: 10 days
Procedure: A clonogenic assay was performed by modifying the method of Franken et al.. Briefly, the cells were incubated overnight in six-well plates, at a density of 200 cells per well. DGH (0.00313, 0.00625, 0.0125, 0.025, 0.05, 0.1, and 0.2 μg/mL) and CGP (0.313, 0.625, 1.25, 2.5, 5, 10, and 20 μg/mL) were incubated with the cells for ten days. After incubation, the medium was removed, the cells were washed with phosphate-buffered saline (PBS), fixed with methanol for 10 min on ice, and stained with crystal violet (0.5% crystal violet in 20% methanol). The number of colonies was quantified using light microscopy (Olympus Co., Tokyo, Japan).

A549 cells [4] = experiment: Cell membrane damage (LDH leakage) assay; type: cell-based, Human; conditions: 1–5000 μg/mL, 24 h
Procedure: Human adenocarcinomic alveolar epithelial (A549) cells were obtained from the Korea Cell Line Bank (Seoul, Korea). Cells were grown in RPMI 1640 medium (Thermo Fisher Scientific, Waltham, MA, USA), containing 10% heat-inactivated fetal bovine serum (Thermo Fisher Scientific, Waltham, MA, USA) and 1% penicillin-streptomycin (Thermo Fisher Scientific, Waltham, MA, USA) under standard cell culture conditions (37 °C, 5% CO2, and 90% humidity).
A549 cells (1 × 10^4 cells) were incubated in 96-well plates overnight, and various concentrations (1, 10, 100, 1000, and 5000 μg/mL) of the eight selected chemicals were added to the cell culture medium. After 24 h of incubation, cell morphology was observed by optical microscopy, and cell viability was evaluated using EZ-Cytox kit (DoGenBio, Seoul, Korea) by quantifying purple formazan crystals. The membrane integrity was examined using an EZ-lactate dehydrogenase (LDH) kit (DoGenBio, Seoul, Korea) to measure the LDH level released from the cytosol into the culture medium. Absorbance was measured using a microplate reader (Tecan, Salzburg, Austria) at a wavelength of 450 nm.

[5] = male rats, exposure groups, 4 h
[6] = rats, 8.6–68 mg/m^3, 4 h, vs control

With CCCCCCCCCCCCN=C(N)N.Cl [DGH, Dodecylguanidine hydrochloride] the “IL-6 level in BALF compared to control groups” value (Sprague-Dawley rats [1]; [5]) was “about seven times”, the “MIP-2 level in BALF compared to control groups” value (Sprague-Dawley rats [1]; [5]) was “about five times” and the “Increase of ratio of PMNs in BALF” value (Sprague-Dawley rats [1]; male rats, high 68 mg/m^3, 4 h) was > 204 fold. The “Increase of ratio of PMNs in BALF” value (Sprague-Dawley rats [1]; male rats, middle 21.3 mg/m^3, 4 h) was “more than 38.7 fold”, the “Cytokines (MIP-2, TGF-β1, IL-1β, TNF-α, IL-6) in BALF” value (Sprague-Dawley rats [1]; rats, 8.6–68 mg/m^3, 4 h) was “increased in a concentration-dependent manner” and the “LDH in BALF” value (Sprague-Dawley rats [1]; [6]) was “increased in a concentration-dependent manner; also recorded: significantly increased in all the exposed groups”. For the same compound, the “PMNs in BALF” value (Sprague-Dawley rats [1]; [6]) was “increased in a concentration-dependent manner; also recorded: significant increase”, the “Total protein in BALF” value (Sprague-Dawley rats [1]; [6]) was “significantly increased in all the exposed groups” and the Spleen weight (Sprague-Dawley rats [2]; male rats, exposed groups, 4 h) was “significantly decreased; also recorded: decreased significantly”. The “Body weight vs control” value (Sprague-Dawley rats [2]; rats, 8.6–68 mg/m^3, 4 h) was “no significant changes”, the Deaths (Sprague-Dawley rats [2]; rats, 8.6–68 mg/m^3, 4 h) was “no deaths occurred; also recorded: no death” and the Hematology vs control (Sprague-Dawley rats [2]; rats, 8.6–68 mg/m^3, 4 h) was “no significant changes”. The “Serum biochemistry vs control” value (Sprague-Dawley rats [2]; rats, 8.6–68 mg/m^3, 4 h) was “no significant changes”, the “LC50 (inhalation)” value (Sprague-Dawley rats [2]; rats, exposure for 4 h, estimated) was > 68 mg/m^3 and the “Total number of colonies” value (A549 cells [3]; DGH 0.00313–0.2 μg/mL, CGP 0.313–20 μg/mL) was “dramatic decrease”. The “Reduction in colony formation compared to the control” value (A549 cells [3]; DGH 0.025 μg/mL) was “approximately 50%” and the “Cell membrane damage (LDH leakage)” value (A549 cells [4]) was “significant dose-dependent damage to the cell membrane”.

From PMC7560342, “In Vitro and In Vivo Evaluation of the Toxic Effects of Dodecylguanidine Hydrochloride” (Toxics, 2020)
